Data: patent publication US12054747B2, “Method of differentiating primordial germ cell into primordial follicle in vitro” (KYUSHU UNIVERSITY, NATIONAL UNIVERSITY CORPORATION, priority 2018, dated 2024)

Experiments:
[1] = system: oocytes in gonad of a 12.5 day-old fetus after fertilization; assay: In vitro culture of gonad in presence of PI3K inhibitor; oocyte size counted by Stella-CFP fluorescence; type: cell-based, mouse; conditions: 25 μM Ly from 6th to 16th day of culture; observed on 16th day; FIG. 6B
Description: First, a Transwell-COL membrane (3.0 μm pore size, 24 mm diameter) (manufactured by Corning Inc.) was set in each well of a 6-well plate, and the gonad collected in (1) were placed on a membrane. Then, 1.3 mL of medium was added to each well and culture was performed for 16 days. Also, the medium was cultured in αM2 for 4 days and then cultured in S10. In addition, the PI3K inhibitor LY294002 (hereinafter, may be abbreviated as “Ly”) (manufactured by Cell Signaling Technology, model number: 9901) was added to the medium such that a final concentration is 25 μM, during the period from the 6th day to the 16th day from the start of the culture. In addition, ICI 182,780 (7α,17β-[9-[(4,4,5,5,5-pentafluoropentyl)sulfinyl]nonyl]estra-1,3,5(10)-triene-3,17-diol) (manufactured by Tocris Bioscience) which is an estrogen receptor antagonist was added during the period from 5th to 9th day after the start of culture such that a final concentration in the medium is 500 nM. About half of the medium was replaced with a new medium every other day. In addition, as a control, those cultured in the same manner without adding Ly (cultured under a steady condition) were also prepared. The gonad on the 16th day from the start of culture were observed under a fluorescent stereomicroscope (manufactured by Olympus Corporation, model number: SZX16). In FIG. 6A, “Control” is a gonad cultured under a steady condition (in the absence of Ly), and “Ly” is a gonad cultured in the presence of the PI3K inhibitor LY294002. A scale bar represents 50 μm. Further, FIG. 6B is a graph in which the number of oocytes was counted using the expression of Stella-CFP as an index in FIG. 6A, and proportions of the oocytes smaller than 20 μm, 20 μm or larger and 50 μm or smaller, and larger than 50 μm were calculated.

[2] = system: transcription factor Foxo3a localization in oocytes; assay: In vitro culture of gonad in presence of PI3K inhibitor with or without pressurization; Foxo3a immunostaining; type: cell-based, mouse; conditions: 25 μM Ly, oocytes of 20 μm or smaller, 16th day; for proportion of oocytes in which Foxo3a was localized in the nucleus: FIG. 8A; for proportion of oocytes in which Foxo3a was localized in the cytosol: FIG. 8B
Description: Specifically, first, a Transwell-COL membrane (3.0 μm pore size, 24 mm diameter) (manufactured by Corning Inc.) was set in each well of a 6-well plate, and the gonad collected in (1) were placed on a membrane. Then, 1.3 mL of medium was added to each well and culture was performed for 16 days. For artificial pressurization, AGP-3001S (registered trademark) manufactured by STREX was used to apply a hydrostatic pressure of 33.33 kPa, during the period from the 6th day to the 16th day from the start of the culture. In addition, Ly was added to the medium such that a final concentration is 25 μM, during the period from the 6th day to the 16th day from the start of the culture. Also, the medium was cultured in αM2 for 4 days and then cultured in S10. In addition, ICI 182,780 (7α,17β-[9-[(4,4,5,5,5-pentafluoropentyl)sulfinyl]nonyl]estra-1,3,5(10)-triene-3,17-diol) (manufactured by Tocris Bioscience) which is an estrogen receptor antagonist was added during the period from 5th to 9th day after the start of culture such that a final concentration in the medium is 500 nM. About half of the medium was replaced with anew medium every other day. As a control, those cultured in the same manner in the presence of Ly without pressurization were also prepared. In the gonad cultured in (2), a tissue section of the gonad was prepared by using the same method as in (1) of Reference Example 1. Then, the tissue section of the gonad obtained in (3) was immunohistochemically stained using the same method as in (4) of Example 1. […] In FIG. 7, “No Press (0 kPa)” is a gonad cultured in the presence of Ly without pressurization. “Press (33.3 kPa)” is a gonad cultured under the artificially pressurized condition and in the presence of Ly. a and e are staining images for CFP expressed under the control of the expression of the germ cell marker Stella. b and f are immunostaining images using an antibody against a transcription factor Foxo3α. c and g are immunostaining images using an antibody against the MVH of the germ cell marker. d is an image in which a nuclear-staining image using DAPI is superimposed on the staining images in a to c. h is an image in which a nuclear-staining image using DAPI is superimposed on the staining images in e to g. A scale bar represents 10 μm. Further, FIG. 8A is a graph obtained by calculating a proportion of oocytes in which the transcription factor Foxo3a is localized in the nucleus, from the immunostaining image using the antibody against the transcription factor Foxo3a in FIG. 7. FIG. 8B is a graph obtained by calculating a proportion of oocytes in which the transcription factor Foxo3a is localized in a cytosol, from the immunostaining image using the antibody against the transcription factor Foxo3a in FIG. 7.

[3] = artificially pressurized condition (33.33 kPa)

O=c1cc(N2CCOCC2)oc2c(-c3ccccc3)cccc12 [Ly, LY294002]
proportion of oocytes having a size larger than 50 μm [1]: about 23% | proportion of oocytes having a size smaller than 20 μm in total oocytes [1]: about 29% | proportion of oocytes with a size of 20 μm or larger and 50 μm or smaller [1]: about 48% | proportion of oocytes in which Foxo3a was localized in the nucleus [2, 3]: about 82% | proportion of oocytes in which Foxo3a was localized in the cytosol [2, 3]: about 18% | proportion of oocytes in which Foxo3a was localized in the nucleus ([2]; without pressurization (0 kPa)): about 52% | proportion of oocytes in which Foxo3a was localized in the cytosol ([2]; without pressurization (0 kPa)): about 48%
